In patent US5933819A, “Prediction of relative binding motifs of biologically active peptides and peptide mimetics” (The Scripps Research Institute, priority 1997, dated 1999):
Like-named read-outs stand apart in the source and are kept apart here. Where no end group is shown, it is not given here.

Assays:
[1] = biological target: T1, K^b on the surface of K^b transfected drosophila cells (Mus musculus, UniProt P01901); assay: FACS analysis of stabilization of cell surface K^b by peptides; assay type: cell-based
T1 construct: expressed in transfected cells; host or cells: Drosophila cells transfected with K^b
T1 sequence (P01901 22-369): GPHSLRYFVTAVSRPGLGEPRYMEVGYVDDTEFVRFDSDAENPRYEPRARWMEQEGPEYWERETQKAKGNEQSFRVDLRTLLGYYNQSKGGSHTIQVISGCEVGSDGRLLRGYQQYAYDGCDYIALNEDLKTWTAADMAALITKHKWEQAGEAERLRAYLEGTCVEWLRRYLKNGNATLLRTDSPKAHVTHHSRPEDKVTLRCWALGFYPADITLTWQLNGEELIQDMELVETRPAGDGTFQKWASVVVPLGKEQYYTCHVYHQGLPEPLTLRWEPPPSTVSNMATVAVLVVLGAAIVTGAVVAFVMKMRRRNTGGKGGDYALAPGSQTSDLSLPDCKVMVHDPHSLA
T1 sequence (P01887 21-119 partner): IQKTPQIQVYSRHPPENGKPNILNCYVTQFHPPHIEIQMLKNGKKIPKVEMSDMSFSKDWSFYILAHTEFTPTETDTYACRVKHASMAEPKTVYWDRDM
Description: FACS Analysis. Values from fluorescence activated cell sorter (FACS) analysis showing the relative amounts of K^b on the surface of K^b transfected drosophila cells following an 18-hour incubation with the indicated peptides. […] Median fluorescence values from separate experiments were normalized by subtracting the median fluorescence obtained in the absence of added peptides from each peptide sample and then expressing those values as the percent of the fluorescence obtained with […] (which was examined in all experiments). Peptide binding was also analyzed by the ability to stabilize cell surface K^b molecules. Empty class I molecules are thermolabile, but they can be stabilized by binding appropriate peptides. Peptides were bound to K^b molecules expressed on the surfaces of K^b transfected Drosophila cells. Their relative binding strengths are indicated by their median fluorescence.

K^b [2] = biological target: T2, K^b (Mus musculus, UniProt P01901); conditions: known immunodominant epitope, characterized previously; read-out: KD (dissociation constant); cited from earlier work
T2 construct: Soluble K^b was purified from transfected Drosophila cells; made in house; host or cells: transfected Drosophila cells
T2 sequence (P01901 22-305 limits assumed): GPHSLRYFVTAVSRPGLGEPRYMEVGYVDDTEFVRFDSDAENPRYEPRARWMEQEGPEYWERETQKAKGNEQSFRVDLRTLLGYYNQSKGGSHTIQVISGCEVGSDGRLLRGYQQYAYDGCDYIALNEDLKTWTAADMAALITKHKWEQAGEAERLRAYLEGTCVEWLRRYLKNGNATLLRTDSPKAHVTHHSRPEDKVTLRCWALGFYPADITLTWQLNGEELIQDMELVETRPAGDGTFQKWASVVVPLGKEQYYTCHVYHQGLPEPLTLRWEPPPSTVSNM
T2 sequence (P01887 21-119 partner): T1 sequence (P01887 21-119 partner)

K^b [3] = biological target: T2, K^b; assay: biochemical; assay type: binding
[4] = 18-hour incubation with peptide, 23° C., antibody Y3, median fluorescence normalized to SIINFEKL
[5] = read-out: KD (dissociation constant)

## CC[C@H](C)[C@H](NC(=O)[C@@H](NC(=O)[C@@H](N)CO)[C@@H](C)CC)C(=O)N[C@@H](CC(N)=O)C(=O)N[C@@H](Cc1ccccc1)C(=O)N[C@@H](CCC(=O)O)C(=O)N[C@@H](CCCCN)C(=O)N[C@@H](CC(C)C)C(=O)O [Peptide 1, reference compound]
[1]; [4]
  FACS Analysis % SIINFEKL (relative amount of K^b on cell surface): 100 % SIINFEKL
K^b [2]
  Kd: 0.003 µM

## AEERYPIL [Peptide 3]
[1]; [4]
  FACS Analysis % SIINFEKL (relative amount of K^b on cell surface): 42 % SIINFEKL
K^b [3]
  Kd: 67 µM

## ASEKMKIL [Peptide 9]
[1]; [4]
  FACS Analysis % SIINFEKL (relative amount of K^b on cell surface): 4 % SIINFEKL
K^b [3]
  Kd: 550 µM

## DHPFLFCI [Peptide 10]
[1]; [4]
  FACS Analysis % SIINFEKL (relative amount of K^b on cell surface): 38 % SIINFEKL
K^b [3]
  Kd: 47 µM

## DVYSFSLA [Peptide 7]
[1]; [4]
  FACS Analysis % SIINFEKL (relative amount of K^b on cell surface): 65 % SIINFEKL
K^b [3]
  Kd: 0.07 µM

## ENIFYCPI [Peptide 11]
[1]
  FACS Analysis % SIINFEKL (relative amount of K^b on cell surface): 77
K^b [3]; [5]
  Kd: 0.094 µM

## GTMSMLVL [Peptide 8]
[1]; [4]
  FACS Analysis % SIINFEKL (relative amount of K^b on cell surface): 0 % SIINFEKL
K^b [3]
  Kd: 1.2 µM

## KVVRFDKL [Peptide 5]
[1]; [4]
  FACS Analysis % SIINFEKL (relative amount of K^b on cell surface): 94 % SIINFEKL
K^b [3]
  Kd: 0.026 µM

## NAIVFKGL [Peptide 4]
[1]; [4]
  FACS Analysis % SIINFEKL (relative amount of K^b on cell surface): 76 % SIINFEKL
K^b [3]
  Kd: 0.013 µM

## RGDKLPGFG [Peptide 6]
[1]; [4]
  FACS Analysis % SIINFEKL (relative amount of K^b on cell surface): 30 % SIINFEKL
K^b [3]
  Kd: 550 µM

## RGYVYQGL [VSV8, reference compound]
K^b [3]; [5]
  Kd: 0.0041 µM

## SALAMVYL [Peptide 2]
[1]; [4]
  FACS Analysis % SIINFEKL (relative amount of K^b on cell surface): 100 % SIINFEKL
K^b [3]
  Kd: 0.0071 µM
